Measured values reported in US20110263507A1 (priority 2007, published 2011).
Read-outs that look alike come from different tables or passages of the source. Where a SMILES comes first, the peptide text is derived from it. [ ]: non-standard residue; d: D form. Ala(indol-4-yl) = N[C@@H](Cc1cccc2[nH]ccc12)C(=O)O; d1Nal = N[C@H](Cc1cccc2ccccc12)C(=O)O; NMeR = CN[C@@H](CCCNC(=N)N)C(=O)O; Tle = CC(C)(C)[C@H](N)C(=O)O

What was measured:
[1] = Degradation of peptides in plasma in vitro (stability to plasma peptidases); assay type: in vitro ADME; settings: peptide incubated with human (FIG. 4) or rat plasma; for half-life: read-out: half-lives in plasma
Method: All peptides that were stable (half-lives >100 h), such as NT66, NT67, NT69, NT72, and NT73, have either a blocked amino group (N-Methyl-Arg) or a D-amino in the 8 or 9 position (Table 4).

hNTS2 = target: T1, hNTS2 (Homo sapiens, UniProt O95665); test: Radioligand competition binding with [3H]NT, membranes of CHO-K1 cells expressing hNTS2
T1 construct: expressed in transfected cells; host or cells: CHO-K1
T1 sequence (O95665 whole entry): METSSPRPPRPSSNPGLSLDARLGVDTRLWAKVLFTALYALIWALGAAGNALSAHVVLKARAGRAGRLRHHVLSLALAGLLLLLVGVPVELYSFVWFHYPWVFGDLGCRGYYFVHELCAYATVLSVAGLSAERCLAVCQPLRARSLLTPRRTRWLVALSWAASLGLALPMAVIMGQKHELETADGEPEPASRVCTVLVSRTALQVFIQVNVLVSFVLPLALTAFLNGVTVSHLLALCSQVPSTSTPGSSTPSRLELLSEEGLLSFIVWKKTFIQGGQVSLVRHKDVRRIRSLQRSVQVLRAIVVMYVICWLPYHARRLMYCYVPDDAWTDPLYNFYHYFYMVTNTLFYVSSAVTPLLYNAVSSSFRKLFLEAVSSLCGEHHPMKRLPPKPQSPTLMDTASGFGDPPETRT
Method: CHO-K1 cells that had been stably transfected separately with the hNTS1 or hNTS2 genes were cultured in 150 mm (500 cm^2) Petri plates with 35 ml of Dulbecco's modified Eagle's medium containing 100 μM minimal essential medium nonessential amino acids (Life Technologies, Inc.) supplemented with 5% (v/v) FetalClone II bovine serum product (Hyclone Labs, Logan, Utah). CHO cells (subculture 7-15) were harvested at confluence by aspiration of the medium, followed by a wash with ice-cold 50 mM Tris-HCl buffer, pH=7.4, which was discarded, resuspension in 5-15 ml of Tris-HCl, scraping the cells with a plastic spatula into a centrifuge tube, and collection of cells by centrifugation at 300×g for 5 min at 4° C., in a GPR centrifuge (Beckman Instruments, Fullerton, Calif.). The cellular pellet (in Tris-HCl buffer) was stored at −180° C. until the radioligand binding was performed.
Incubation was at 20° C. for 40 min. The assay was routinely terminated by addition of ice-cold 0.9% NaCl (5×1.5 ml), followed by rapid filtration through a GF/B filter strip that had been pretreated with 0.2% or 2% polyethyleneimine. […] Data were analyzed using the LIGAND program.
Curves were generated using the LIGAND program. […] Data are the means of duplicate determinations and are representative results from one of at least three independent experiments.

[2] = Direct injection into the brains of rats; assay type: in vivo; settings: direct injection into brain, unpublished observations
From the text: (See Cusack, B. et al. BRAIN RES 856: 48-54 (2000) and Tyler-McMahon, B. M. et al. EUR J PHARMACOL 390: 107-11 (2000)).

hNTS1 = target: T2, hNTS1 (Homo sapiens, UniProt P30989); test: Radioligand competition binding with [3H]NT, membranes of CHO-K1 cells expressing hNTS1; settings: for hNTS1 Selectivity: Table 2, hNTS1 over hNTS2
T2 construct: expressed in transfected cells; host or cells: CHO-K1
T2 sequence (P30989 whole entry): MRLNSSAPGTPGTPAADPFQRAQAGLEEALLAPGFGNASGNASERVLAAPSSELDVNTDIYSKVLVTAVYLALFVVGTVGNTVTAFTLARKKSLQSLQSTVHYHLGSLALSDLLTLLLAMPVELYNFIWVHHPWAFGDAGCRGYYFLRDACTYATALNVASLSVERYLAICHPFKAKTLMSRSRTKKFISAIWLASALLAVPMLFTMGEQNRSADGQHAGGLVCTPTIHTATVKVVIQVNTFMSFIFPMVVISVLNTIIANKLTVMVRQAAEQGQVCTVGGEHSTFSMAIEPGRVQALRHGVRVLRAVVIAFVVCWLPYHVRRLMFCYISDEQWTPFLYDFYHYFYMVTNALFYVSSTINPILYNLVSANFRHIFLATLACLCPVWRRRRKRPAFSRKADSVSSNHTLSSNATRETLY
Method: CHO-K1 cells that had been stably transfected separately with the hNTS1 or hNTS2 genes were cultured in 150 mm (500 cm^2) Petri plates with 35 ml of Dulbecco's modified Eagle's medium containing 100 μM minimal essential medium nonessential amino acids (Life Technologies, Inc.) supplemented with 5% (v/v) FetalClone II bovine serum product (Hyclone Labs, Logan, Utah). […] The cellular pellet (in Tris-HCl buffer) was stored at […] until the radioligand binding was performed.
For use in binding assays, crude membrane preparations were prepared by centrifugation of the cellular pellet at 35,600×g for 10 min. The supernatant was decanted and discarded, and the cellular pellet was resuspended in 1 ml of Tris-HCl buffer followed by homogenization with a Brinkmann Polytron at setting 5.5 for 15 s. Centrifugation was repeated as above, the supernatant was decanted and discarded, and the cellular pellet was resuspended in 1 ml of Tris-HCl buffer followed by homogenization. Centrifugation was repeated a third time, the supernatant was discarded, and the final cellular pellet was suspended in 0.5-2.5 ml of Tris-HCl buffer. Protein concentration of the membrane preparation was estimated by the method of Lowry et al. using bovine serum albumin as a standard.
Incubation was at 20° C. for 40 min. The assay was routinely terminated by addition of ice-cold 0.9% NaCl (5×1.5 ml), followed by rapid filtration through a GF/B filter strip that had been pretreated with 0.2% or 2% polyethyleneimine. Details of binding assays have been described previously. […] Data were analyzed using the LIGAND program.

[3] = Body temperature lowering in mice; assay type: in vivo; settings: intraperitoneal; for effect on body temperature: 10 times the dosage of that for NT69, FIG. 5
From the text: At time “0” baseline readings were made. […] The thermistor probe was inserted 2 cm into the rectum for the measurement of body temperature.

6-keto-prostaglandin F1α = test: Plasma prostaglandin levels after injection; assay type: in vivo; settings: mice, 30 min after injection; NT69 2 mg/kg, NT79 20 mg/kg intraperitoneally; compared to saline; surrogate marker for hypotension
Method: Blood samples from 3 mice were pooled for each condition.
Therefore, in preliminary studies, levels of 6-keto-prostaglandin F1α immunoreactivity were measured after injection of saline, NT69, or NT79 into mice (FIG. 8).

Tail flick test = assay type: in vivo; settings: rats, 20 mg/kg intraperitoneally, FIG. 6
Method: The tail flick test also measures changes in nociceptive threshold to thermal stimulus. The rats were administered 20 mg/kg of NT79 intraperitoneally. The rat was placed in a restrainer. Water was heated to 52° C. (52-54° C.). The rat's tail was immersed in the heated water. The latency to flick the tail was recorded. A 10 sec cutoff period was used to prevent tissue damage. Antinociception was expressed as a percentage of the Maximal Possible Effect (MPE) % MPE=100×(test latency−baseline latency)/(cutoff time {10 s}−baseline latency). Analgesic compounds will result in higher % MPE.

[4] = Acetic acid-induced writhing test; assay type: in vivo; settings: rats, 20 mg/kg intraperitoneally, FIG. 7
Method: The writhing test was used to measure changes in the nociceptive threshold to a chemical stimulus. The rats were administered 20 mg/kg of NT79 intraperitoneally. The rats were also injected with 0.5 ml of a 2% (v/v) aqueous solution of acetic acid and placed individually in clear plastic containers for observation.
Behavioral Measure: The number of writhes was counted during a 60 min observation period. A writhe was defined as stretching of the hind limbs accompanied by a contraction of abdominal muscles. Analgesic compounds will result in lower number of writhes.

[5] = read-out: hNTS1 Geometric Mean ∀ SEM (equilibrium dissociation constant Kd)
[6] = Table 2, read-out: hNTS2 Geometric Mean ∀ SEM (equilibrium dissociation constant Kd)

Row | Structure (SMILES) | hNTS1 Selectivity (hNTS1) | Kd (hNTS1; [5]) | hNTS2 Selectivity (hNTS2; Table 2, hNTS2 over hNTS1) | Kd (hNTS2; [6]) | half-life [1] | Kd (hNTS2; text, read-out: Kd at hNTS2) | hNTS2 Selectivity (hNTS2; Table 4) | further results
1 | CC[C@H](C)[C@H](NC(=O)[C@H](Cc1cccc2[nH]ccc12)NC(=O)[C@@H]1CCCN1C(=O)[C@H](CCCNC(=N)N)NC(=O)[C@@H](N)CCCNC(=N)N)C(=O)N[C@@H](CC(C)C)C(=O)O [NT64L, [L-neo-Trp^11]NT(8-13)] | – | – | – | – | – | – | – | degradation in plasma [1]: rapidly degraded
2 | CC[C@H](C)[C@H](NC(=O)[C@@H](Cc1cccc2ccccc12)NC(=O)[C@@H]1CCCN1C(=O)[C@H](CCCNC(=N)N)NC(=O)[C@@H](N)CCCNC(=N)N)C(=O)N[C@@H](CC(C)C)C(=O)O [NT50, [D-3,1-Nal^11]NT(8-13)] | – | – | – | – | – | 17.3 nM | – | behavioral effect [2]: caused behavioral activation; effects on body temperature [2]: little or no effects on body temperature
3 | CN[C@@H](CCCNC(=N)N)C(=O)N[C@@H](CCCCN)C(=O)N1CCC[C@H]1C(=O)N[C@@H](Cc1cccc2[nH]ccc12)C(=O)N[C@H](C(=O)N[C@@H](CC(C)C)C(=O)O)C(C)(C)C [NT69L, [N-methyl-Arg^8,L-Lys^9,L-neo-Trp^11,tert-Leu^12]NT(8-13)] (H-[NMeR]KP[Ala(indol-4-yl)][Tle]L-OH; C-terminus assumed) | 0.7 | 3.1 ± 0.4 nM | 1.5 | 2.1 ± 0.2 nM | > 100 h | – | 1.5 | change in body temperature (decrease) ([3]; FIG. 5): about 10 °C; plasma levels of prostaglandin (6-keto-prostaglandin F1α immunoreactivity) (6-keto-prostaglandin F1α): markedly elevated
4 | CC(C)C[C@H](NC(=O)[C@@H](NC(=O)[C@H](Cc1cccc2[nH]ccc12)NC(=O)[C@@H]1CCCN1C(=O)[C@H](CCCNC(=N)N)NC(=O)[C@H](N)CCCCN)C(C)(C)C)C(=O)O [NT66L, [D-Lys^8,L-neo-Trp^11,tert-Leu^12]NT(8-13)] (H-[dK]RP[Ala(indol-4-yl)][Tle]L-OH; N-terminus and C-terminus assumed) | 0.7 | 10.2 ± 0.6 nM | 1.4 | 7.1 ± 0.8 nM | > 100 h | – | 2 | –
5 | CN[C@@H](CCCNC(=N)N)C(=O)N[C@@H](CCCNC(=N)N)C(=O)N1CCC[C@H]1C(=O)N[C@H](Cc1cccc2ccccc12)C(=O)N[C@H](C(=O)N[C@@H](CC(C)C)C(=O)O)C(C)(C)C [NT79, [N-methyl-Arg^8,D-3,1-Nal^11,tert-Leu^12]NT(8-13)] (H-[NMeR]RP[d1Nal][Tle]L-OH; C-terminus assumed) | – | – | 82 | – | – | – | 82 | Kd (hNTS1): 1800 nM; Kd (hNTS1; Kd at hNTS1): ~1800 nM; Kd (hNTS2): 22 nM; selectivity for hNTS2 (hNTS2; text): 82 fold; effect on body temperature [3]: minimal effects; antinociceptive effect in tail flick assay (Tail flick test): demonstrated antinociceptive effects; antinociceptive effect in writhing pain model [4]: robust antinociceptive effect; plasma levels of prostaglandin (6-keto-prostaglandin F1α immunoreactivity) (6-keto-prostaglandin F1α): no effect
6 | CC[C@H](C)[C@H](NC(=O)[C@H](Cc1cccc2[nH]ccc12)NC(=O)[C@@H]1CCCN1C(=O)[C@H](CCCNC(=N)N)NC(=O)[C@H](N)CCCCN)C(=O)N[C@@H](CC(C)C)C(=O)O [NT67L, [D-Lys^8,L-neo-Trp^11]NT(8-13)] (H-[dK]RP[Ala(indol-4-yl)]IL-OH; N-terminus and C-terminus assumed) | 2.1 | 0.59 ± 0.05 nM | 0.5 | 1.23 ± 0.03 nM | > 100 h | – | — (“—“ indicates higher affinity for hNTS1) | –
7 | CC[C@H](C)[C@H](NC(=O)[C@@H](Cc1cccc2ccccc12)NC(=O)[C@@H]1CCCN1C(=O)[C@H](CCCNC(=N)N)NC(=O)[C@H](CCCNC(=N)N)NC)C(=O)N[C@@H](CC(C)C)C(=O)O [NT80, [N-methyl-Arg^8,D-3,1-Nal^11]NT(8-13)] | – | – | – | 30 nM | – | ~30 nM | – | effect on body temperature [3]: minimal effects

Now from value to compound, other results behind:

Row | hNTS1 Selectivity (hNTS1) | Kd (hNTS1; [5]) | hNTS2 Selectivity (hNTS2; Table 2, hNTS2 over hNTS1) | Kd (hNTS2; [6]) | half-life [1] | Structure (SMILES) | Kd (hNTS2; text, read-out: Kd at hNTS2) | hNTS2 Selectivity (hNTS2; Table 4) | further results
8 | 41.0 | – | 0.02 | – | > 100 h | CC(C)C[C@H](NC(=O)[C@@H](NC(=O)[C@H](Cc1cccc2[nH]ccc12)NC(=O)[C@@H]1CCCN1C(=O)[C@H](N)CCCCN)C(C)(C)C)C(=O)O [NT72, [D-Lys^9,L-neo-Trp^11,tert-Leu^12]NT(9-13)] (H-[dK]P[Ala(indol-4-yl)][Tle]L-OH; N-terminus and C-terminus assumed) | 1400 nM | — (“—“ indicates higher affinity for hNTS1) | Kd (hNTS1; text, read-out: Kd at hNTS1): 34 nM
9 | 0.5 | 1.01 ± 0.05 nM | 1.9 | 0.52 ± 0.03 nM | – | CC(C)C[C@H](NC(=O)[C@@H](NC(=O)[C@H](Cc1cccc2[nH]ccc12)NC(=O)[C@@H]1CCCN1C(=O)[C@H](CCCNC(=N)N)NC(=O)[C@@H](N)CCCNC(=N)N)C(C)(C)C)C(=O)O [NT65, [neo-Trp^11,tert-Leu^12]NT(8-13)] (H-RRP[Ala(indol-4-yl)][Tle]L-OH; N-terminus and C-terminus assumed) | – | 1.7 | degradation in plasma [1]: rapidly degraded
10 | 5.5 | 30 ± 3 nM | 0.2 | 162 ± 3 nM | > 100 h | CC[C@H](C)[C@H](NC(=O)[C@H](Cc1cccc2[nH]ccc12)NC(=O)[C@@H]1CCCN1C(=O)[C@H](N)CCCCN)C(=O)N[C@@H](CC(C)C)C(=O)O [NT73, [D-Lys^9,L-neo-Trp^11]NT(9-13)] (H-[dK]P[Ala(indol-4-yl)]IL-OH; N-terminus and C-terminus assumed) | – | – | –
